Reference: patent publication US7592335B2, “Oxazolidinone derivatives as antimicrobials” (Ranbaxy Laboratories Limited, priority 2005, dated 2009)
≈ marks a conversion by molar mass, not a printed value. Blank lines part the entries; values can stand above or below the compound they belong to.

Assays:
[1] = system: Enterococcus faecalis ATCC 29212; experiment: in vitro antibacterial activity, agar dilution MIC; type: cell-based; settings: 35±2° C.
Experimental: (§1) The compounds of the invention display antibacterial activity when tested by the agar incorporation method. The following minimum inhibitory concentrations (μg/mL) were obtained for representative compound of the invention, which is given below in the following table.
(§2) Briefly, the compounds were dissolved in dimethylsulphoxide and doubling dilution of the compounds was incorporated into Muller Hilton agar before solidification. Inoculum for staphylococcus aureus and Enterococus strain was prepared by direct colony suspension in normal saline solution and adjusting the turbidity to 0.5 Macfarland turbidity and subsequently diluting as per NCCLS guidelines in order to obtain 10^4 CFU/spot. CFU/mL of few randomly selected cultures was performed. The cultures were replicated on agar plate using Denley's multipoint replicator. The agar plates were incubated for 18 hours-24 hours (24 hours for MRSA studies) at 35±2° C. Q.C. strains were also included in each run of the study.
(§3) The concentration showing no growth of the inoculated culture was recorded as the MIC. Appropriate ATCC standard strains were simultaneously tested and result recorded only when the MIC's against standard antibiotics were within the acceptable range.

[2] = system: Methicilline Resistant Staphylococcus aureus ATCC33; experiment: in vitro antibacterial activity, agar dilution MIC; type: cell-based; settings: 24 hours, 35±2° C.
Experimental: as §1, §2, §3

[3] = system: Methicilline Resistant Staphylococcus aureus ATCC562; experiment: in vitro antibacterial activity, agar dilution MIC; type: cell-based; settings: 24 hours, 35±2° C.
Experimental: as §1, §2, §3

[4] = system: Staphylococcus aureus ATCC 15187; experiment: in vitro antibacterial activity, agar dilution MIC; type: cell-based; settings: 35±2° C.
Experimental: as §1, §2, §3

[5] = system: Staphylococcus aureus ATCC 25923; experiment: in vitro antibacterial activity, agar dilution MIC; type: cell-based; settings: 35±2° C.
Experimental: as §1, §2, §3

[6] = system: Vancomycin-resistant enterococci ATCC 6A; experiment: in vitro antibacterial activity, agar dilution MIC; type: cell-based; settings: VRE ATCC 6A, 18-24 hours, 35±2° C.
Experimental: as §1, §2, §3

[7] = system: Streptococcus pneumonia ATCC AB34; experiment: in vitro antibacterial activity, agar dilution MIC (MHA and 5% sheep blood); type: cell-based, Streptococcus pneumoniae; settings: 18-24 hours
Experimental: as §1
(§4) Inoculum preparation for Streptococcus pneumoniae, Moraxella catarrhalis, Streptococcus pyogenes strains and the method of MIC is an agar dilution method with MHA (Mueller Hinton agar) and 5% sheep blood. Inoculum was prepared by direct colony suspension in normal saline solution and adjusting the turbidity to 1 Mcfarland and subsequently diluting as per NCCLS guidelines in order to obtain 10^4 CFU/ml. The plates were incubated in CO2 at 37° C. for 18-24 hours.
as §3

[8] = system: Streptococcus pneumonia ATCC6303; experiment: as above; type: cell-based, Streptococcus pneumoniae; settings: 18-24 hours
Experimental: as §1, §4, §3

[9] = system: Moraxella catarrhalis ATCC 8176; experiment: as above; type: cell-based; settings: 18-24 hours
Experimental: as §1, §4, §3

[10] = system: Streptococcus pyogenes ATCC 19615; experiment: as above; type: cell-based; settings: 18-24 hours
Experimental: as §1, §4, §3

[11] = system: Haemophilus influenzae 49247; experiment: Haemophilus MIC, microbroth dilution method; type: cell-based; settings: H. influ. 49247, Mueller Hinton Broth cation adjusted + yeast extract + supplements
Experimental: as §1
The in vitro activity for Haemophilus MICs were performed by using Microbroth dilution method as follows: Media used: Mueller Hinton Broth (MHB-Difco)−Cation adjusted+5 grams per liter Yeast extract+supplements
Preparation of drug concentrations in 96 well microtitre plates were done as per the NCCLS method. Inoculum was prepared by direct colony suspensions in normal saline and adjusted to 1 McFarland turbidity and subsequently diluted in broth 100 times as per NCCLS guidelines in order to obtain 10^5 […].
as §3

SMILES: CC(=O)NCC1CN(c2ccc(N3CC4NCCOC4C3)c(F)c2)C(=O)O1 (stereo not shown) [Compound No. 05, N-[(3-{3-fluoro-4-[(7aE)-hexahydropyrrolo[3,4-b][1,4]oxazin-6(2H)-yl]phenyl}-2-oxo-1,3-oxazolidin-5-yl)methyl]acetamide]
minimum inhibitory concentration, E. faecalis 29212 ([1]; Ent. faecalis ATCC 29212, 18-24 hours): 2 µg/mL (≈ 5.29 µM) | minimum inhibitory concentration, MRSA 33 [2]: 4 µg/mL (≈ 10.6 µM) | minimum inhibitory concentration, MRSA 562 [3]: 4 µg/mL (≈ 10.6 µM) | minimum inhibitory concentration, S. aureus 15187 ([4]; S. aureus ATCC 15187, 18-24 hours): 8 µg/mL (≈ 21.1 µM) | minimum inhibitory concentration, S. aureus 25923 ([5]; S. aureus ATCC 25923, 18-24 hours): 8 µg/mL (≈ 21.1 µM) | minimum inhibitory concentration, VRE 6A [6]: 2 µg/mL (≈ 5.29 µM) | minimum inhibitory concentration, S. pneum AB34 ([7]; CO2, 37° C.): 2 µg/mL (≈ 5.29 µM) | minimum inhibitory concentration, S. pneum 6303 ([8]; CO2, 37° C.): 2 µg/mL (≈ 5.29 µM) | minimum inhibitory concentration, M. catt 8176 ([9]; M. catt. ATCC 8176, CO2, 37° C.): >16 µg/mL | minimum inhibitory concentration, S. pyogenes 19615 ([10]; Strep. pyog. ATCC 19615, CO2, 37° C.): 2 µg/mL (≈ 5.29 µM) | minimum inhibitory concentration, H. inf 49247 [11]: 8 µg/mL

MIC ([1]; Enterococcus faecalis, ATCC29212, Ent. faecalis ATCC 29212, 18-24 hours, read-out: minimum inhibitory concentration, E. faecalis 29212): 2 µg/mL (≈ 5.93 µM) | MIC ([2]; Staphylococcus aureus, ATCC 33 / MRSA, read-out: minimum inhibitory concentration, MRSA 33): 2 µg/mL (≈ 5.93 µM) | MIC ([3]; Staphylococcus aureus, ATCC 562 / MRSA, read-out: minimum inhibitory concentration, MRSA 562): 2 µg/mL (≈ 5.93 µM) | MIC ([4]; Staphylococcus aureus, ATCC15187, S. aureus ATCC 15187, 18-24 hours, read-out: minimum inhibitory concentration, S. aureus 15187): 2 µg/mL (≈ 5.93 µM) | MIC ([5]; Staphylococcus aureus, ATCC25923, S. aureus ATCC 25923, 18-24 hours, read-out: minimum inhibitory concentration, S. aureus 25923): 2 µg/mL (≈ 5.93 µM) | MIC ([6]; Enterococcus, read-out: minimum inhibitory concentration, VRE 6A): 2 µg/mL (≈ 5.93 µM) | MIC ([7]; Streptococcus pneumoniae, ATCCAB34, S. pneum ATCC AB34, CO2, 37° C., read-out: minimum inhibitory concentration, S. pneum AB34): 2 µg/mL (≈ 5.93 µM) | MIC ([8]; Streptococcus pneumoniae, S. pneum ATCC6303, CO2, 37° C., read-out: minimum inhibitory concentration, S. pneum 6303): 1 µg/mL (≈ 2.96 µM) | MIC ([9]; Moraxella catarrhalis, ATCC8176, M. catt. ATCC 8176, CO2, 37° C., read-out: minimum inhibitory concentration, M. catt 8176): 2 µg/mL (≈ 5.93 µM) | MIC ([10]; Streptococcus pyogenes, ATCC19615, Strep. pyog. ATCC 19615, CO2, 37° C., read-out: minimum inhibitory concentration, S. pyogenes 19615): 2 µg/mL (≈ 5.93 µM) | MIC ([11]; Haemophilus influenzae, read-out: minimum inhibitory concentration, H. inf 49247): 8 µg/mL
SMILES: CC(=O)NC[C@H]1CN(c2ccc(N3CCOCC3)c(F)c2)C(=O)O1 [Linezolid]
